Patent US10278968B2, “Combination therapy with glutaminase inhibitors” (Calithera Biosciences, Inc., priority 2016, dated 2019)

Test system: P493-6 (myc "on") cells
Experiment: Cell Proliferation Assay
Type: cell-based
Details: read-out: Cell prolif P493 72 h IC50; P493-6 cells, 72 h incubation
Procedure: P493-6 (myc “on”) cells were maintained in growth media (RPMI-1640, 10% FBS, 2 mM glutamine, 100 units/ml Penicillin and 100 μg/ml streptomycin) at 37° C. with 5% CO2. For compound assay, P493-6 cells were plated in 96-well V-bottom plates on the day of compound addition in 50 μl of growth media at a cell density of 200,000 cells/ml (10,000 cells/well). Compounds were serially diluted in 100% DMSO at 200-times the final concentration. Compounds were diluted 100-fold into growth media and then 50 μl of this mixture was added to cell plates making the final concentration of DMSO 0.5%. Cells were incubated with compound for 72 hrs at 37° C. with 5% CO2 and analyzed for antiproliferative effects either by Cell Titer Glo (Promega) or FACS analysis using the Viacount (Millipore) kit on the Guava instrument.

COc1ccc(OC(F)(F)F)cc1CC(=O)Nc1ccc(CCCCc2nnc(NC(=O)Cc3ccccn3)s2)nn1 [Cmpd 717]
IC50: 19 nM
